# Article PMC7377239, “Cardiovascular Effects of Polychlorinated Biphenyls and Their Major Metabolites” (Environmental Health Perspectives, 2020)
# Where two headings read alike, the source gives them in different places.
# Experiments:
# [1] = test system: iCell cardiomyocytes (human iPSC-derived cardiomyocytes); experiment: High-content imaging of cytotoxicity and mitochondrial integrity in iPSC-CMs; assay type: cell-based; details: Homo sapiens; for viability at 0.01 µM / activity at 0.01 µM / viability at 0.1 µM / activity at 0.1 µM / viability at 1 µM / activity at 1 µM / viability at 10 µM / activity at 10 µM / viability at 100 µM / activity at 100 µM: Cardiomyocyte, 0.00 µM = 100.00; for viability at 0.1 µM / activity at 0.1 µM: 0.10 µM; for minimal effective concentration: iPSC-CM
# Summary of the method: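 Cardiomyocytes grown on gelatinized 384-well plates received fresh medium on the experiment day and were then exposed to chemicals at 0.01–100μM. Nuclei and mitochondria were labeled with Hoechst 33342 and MitoTracker™ Orange, then fixed, and imaged on an ImageXpress® Micro Confocal system. Four-parameter logistic concentration–response fits in R, with a one-standard-deviation vehicle cutoff, gave point-of-departure values.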
# [2] = test system: HUVECs; experiment: High-content imaging cytotoxicity in HUVECs, 24 h; assay type: cell-based, human; details: Homo sapiens, HUVEC, 24 h, HUVECs; for viability at 0.01 µM / activity at 0.01 µM / viability at 0.1 µM / activity at 0.1 µM / viability at 1 µM / activity at 1 µM / viability at 10 µM / activity at 10 µM / viability at 100 µM / activity at 100 µM: 0.00 µM = 100.00; for viability at 0.1 µM / activity at 0.1 µM: 0.10 µM; for minimal effective concentration: top concentration 100.00 µM
# Summary of the method: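 Point-of-departure values come from four-parameter logistic fits of vehicle-normalized (0.5% DMSO) imaging readouts, cutoff one SD of vehicle means, 100μM where no concentration–response. Cells: HUVEC monolayers, passages 1–5, treated 24 h at 37°C, 5% CO2, then Hoechst 33342/MitoTracker Orange/calcein AM stained, imaged at 10×.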
# [3] = 24 hr, read-out: huvec.cyto.24hr
# [4] = 24 hr, read-out: huvec.mito.24hr
# [5] = 24 hr, read-out: huvec.mitoint.24hr
# [6] = 24 hr, read-out: huvec.nma.24hr
# [7] = 24 hrs, read-out: huvec.tc.24hrs
smiles,measurement,setting,value
Oc1ccc(-c2cccc(Cl)c2)cc1Cl [4-OH PCB11],viability at 0.01 µM,"[1]; 1.5 h, read-out: cm.cam.90min",94.9%
same,activity at 0.01 µM,"[1]; 1.5 h, read-out: cm.mii.90min",115%
same,activity at 0.01 µM,"[1]; 1.5 h, read-out: cm.mito.90min",94.7%
same,viability at 0.01 µM,"[1]; 1.5 h, read-out: cm.tc.90min",94.7%
same,viability at 0.1 µM,"[1]; 1.5 h, read-out: cm.cam.90min",95%
same,activity at 0.1 µM,"[1]; 1.5 h, read-out: cm.mii.90min",108%
same,activity at 0.1 µM,"[1]; 1.5 h, read-out: cm.mito.90min",95%
same,viability at 0.1 µM,"[1]; 1.5 h, read-out: cm.tc.90min",95%
same,viability at 1 µM,"[1]; 1.5 h, read-out: cm.cam.90min",99.1%
same,activity at 1 µM,"[1]; 1.5 h, read-out: cm.mii.90min",113%
same,activity at 1 µM,"[1]; 1.5 h, read-out: cm.mito.90min",98.6%
same,viability at 1 µM,"[1]; 1.5 h, read-out: cm.tc.90min",98.8%
same,viability at 10 µM,"[1]; 1.5 h, read-out: cm.cam.90min",106%
same,activity at 10 µM,"[1]; 1.5 h, read-out: cm.mii.90min",93.6%
same,activity at 10 µM,"[1]; 1.5 h, read-out: cm.mito.90min",106%
same,viability at 10 µM,"[1]; 1.5 h, read-out: cm.tc.90min",106%
same,viability at 100 µM,"[1]; 1.5 h, read-out: cm.cam.90min",0.0234%
same,activity at 100 µM,"[1]; 1.5 h, read-out: cm.mii.90min",157%
same,activity at 100 µM,"[1]; 1.5 h, read-out: cm.mito.90min",0.0462%
same,viability at 100 µM,"[1]; 1.5 h, read-out: cm.tc.90min",0.09%
same,viability at 0.01 µM,"[1]; 24 h, read-out: cm.cam.24hrs",90.8%
same,activity at 0.01 µM,"[1]; 24 h, read-out: cm.mii.24hrs",101%
same,activity at 0.01 µM,"[1]; 24 h, read-out: cm.mito.24hrs",86.2%
same,viability at 0.01 µM,"[1]; 24 h, read-out: cm.tc.24hrs",90.8%
same,viability at 0.1 µM,"[1]; 24 h, read-out: cm.cam.24hrs",100%
same,activity at 0.1 µM,"[1]; 24 h, read-out: cm.mii.24hrs",111%
same,activity at 0.1 µM,"[1]; 24 h, read-out: cm.mito.24hrs",97.6%
same,viability at 0.1 µM,"[1]; 24 h, read-out: cm.tc.24hrs",99.9%
same,viability at 1 µM,"[1]; 24 h, read-out: cm.cam.24hrs",98.4%
same,activity at 1 µM,"[1]; 24 h, read-out: cm.mii.24hrs",100%
same,activity at 1 µM,"[1]; 24 h, read-out: cm.mito.24hrs",96.4%
same,viability at 1 µM,"[1]; 24 h, read-out: cm.tc.24hrs",98.7%
same,viability at 10 µM,"[1]; 24 h, read-out: cm.cam.24hrs",93.1%
same,activity at 10 µM,"[1]; 24 h, read-out: cm.mii.24hrs",96.5%
same,activity at 10 µM,"[1]; 24 h, read-out: cm.mito.24hrs",90.8%
same,viability at 10 µM,"[1]; 24 h, read-out: cm.tc.24hrs",93.5%
same,viability at 100 µM,"[1]; 24 h, read-out: cm.cam.24hrs",0.0471%
same,activity at 100 µM,"[1]; 24 h, read-out: cm.mii.24hrs",1.84%
same,activity at 100 µM,"[1]; 24 h, read-out: cm.mito.24hrs",0.024%
same,viability at 100 µM,"[1]; 24 h, read-out: cm.tc.24hrs",0.11%
same,minimal effective concentration,"[1]; 1.5 h, read-out: cm.cam.90min POD",27.7 µM
same,minimal effective concentration,"[1]; 1.5 h, read-out: cm.mii.90min POD",32.7 µM
same,minimal effective concentration,"[1]; 1.5 h, read-out: cm.mito.90min POD",40.1 µM
same,minimal effective concentration,"[1]; 1.5 h, read-out: cm.tc.90min POD",36.2 µM
same,minimal effective concentration,"[1]; 24 h, read-out: cm.cam.24hrs POD",8.57 µM
same,minimal effective concentration,"[1]; 24 h, read-out: cm.mii.24hrs POD",43.2 µM
same,minimal effective concentration,"[1]; 24 h, read-out: cm.mito.24hrs POD",7.94 µM
same,minimal effective concentration,"[1]; 24 h, read-out: cm.tc.24hrs POD",8.62 µM
same,viability at 0.01 µM,[2]; [3],113%
same,activity at 0.01 µM,[2]; [4],112%
same,activity at 0.01 µM,[2]; [5],86.8%
same,activity at 0.01 µM,[2]; [6],95.3%
same,viability at 0.1 µM,[2]; [3],87.7%
same,activity at 0.1 µM,[2]; [4],86.9%
same,activity at 0.1 µM,[2]; [5],109%
same,activity at 0.1 µM,[2]; [6],105%
same,viability at 1 µM,[2]; [3],97%
same,activity at 1 µM,[2]; [4],96.1%
same,activity at 1 µM,[2]; [5],101%
same,activity at 1 µM,[2]; [6],97.1%
same,viability at 10 µM,[2]; [3],43.8%
same,activity at 10 µM,[2]; [4],26.1%
same,activity at 10 µM,[2]; [5],10.9%
same,activity at 10 µM,[2]; [6],69.2%
same,viability at 100 µM,[2]; [3],34.6%
same,activity at 100 µM,[2]; [4],0.26%
same,activity at 100 µM,[2]; [5],2.7%
same,activity at 100 µM,[2]; [6],73.6%
same,minimal effective concentration,"[2]; 24 hr, read-out: huvec.cyto.24hr POD",1.37 µM
same,minimal effective concentration,"[2]; 24 hr, read-out: huvec.mito.24hr POD",1.2 µM
same,minimal effective concentration,"[2]; 24 hr, read-out: huvec.mitoint.24hr POD",5.43 µM
same,minimal effective concentration,"[2]; 24 hr, read-out: huvec.nma.24hr POD",0.99 µM
same,viability at 0.01 µM,[2]; [7],113%
same,viability at 0.1 µM,[2]; [7],87.7%
same,viability at 1 µM,[2]; [7],97%
same,viability at 10 µM,[2]; [7],44.1%
same,viability at 100 µM,[2]; [7],36.5%
same,minimal effective concentration,"[2]; 24 hrs, read-out: huvec.tc.24hrs POD",1.37 µM
